Activity calls are given as the source filed them. No cut-off for these calls is given here.
Columns and labels:
[1] = system: NCI-H1975; assay: Cell cycle arrest in human NCI-H1975 cells assessed as BrdU positive cells at 140 nM incubated for 48 hrs by BrdUrd incorporation assay (reference value: 34 +/- 5.6 %); type: functional
[2] = target: T1, DNA replication licensing factor MCM3 (Homo sapiens) (UniProt P25205); assay: Induction of ubiquitination of MCM3 in human NCI-H1975 cells incubated for 48 hrs by immunoblot analysis (reference value: 1); type: cell-based
T1 sequence (whole entry): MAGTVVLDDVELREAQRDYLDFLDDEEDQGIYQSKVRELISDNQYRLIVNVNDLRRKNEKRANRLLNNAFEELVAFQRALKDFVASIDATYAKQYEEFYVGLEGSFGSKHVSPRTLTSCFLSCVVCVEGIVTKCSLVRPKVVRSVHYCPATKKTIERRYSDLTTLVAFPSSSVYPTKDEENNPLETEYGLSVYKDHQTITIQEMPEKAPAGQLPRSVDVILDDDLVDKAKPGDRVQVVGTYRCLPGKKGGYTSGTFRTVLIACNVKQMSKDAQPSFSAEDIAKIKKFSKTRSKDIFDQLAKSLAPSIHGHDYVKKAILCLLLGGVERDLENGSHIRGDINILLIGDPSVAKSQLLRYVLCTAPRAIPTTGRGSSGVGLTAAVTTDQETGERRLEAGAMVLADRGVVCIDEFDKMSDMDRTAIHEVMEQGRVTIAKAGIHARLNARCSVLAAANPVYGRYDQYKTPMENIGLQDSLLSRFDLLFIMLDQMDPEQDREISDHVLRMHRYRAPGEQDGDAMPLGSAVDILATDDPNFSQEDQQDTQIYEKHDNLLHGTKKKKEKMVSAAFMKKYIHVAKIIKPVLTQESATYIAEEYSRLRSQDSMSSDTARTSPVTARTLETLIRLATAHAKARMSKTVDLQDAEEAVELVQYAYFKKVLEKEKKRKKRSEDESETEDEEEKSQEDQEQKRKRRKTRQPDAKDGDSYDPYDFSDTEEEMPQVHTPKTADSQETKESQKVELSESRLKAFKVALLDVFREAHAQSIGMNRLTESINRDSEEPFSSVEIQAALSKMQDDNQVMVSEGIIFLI

[3] = target: DNA replication licensing factor MCM7 (Homo sapiens) (UniProt P33993); assay: Induction of ubiquitination of MCM7 in human NCI-H1975 cells incubated for 72 hrs by immunoblot analysis (reference value: 1); type: cell-based
[4] = target: DNA replication licensing factor MCM7 (Homo sapiens) (UniProt P33993); assay: Induction of ubiquitination of MCM7 in human H3255 cells incubated for 24 hrs by immunoblot analysis; type: cell-based; details: NCI-H3255
[5] = target: DNA replication licensing factor MCM2 (Homo sapiens) (UniProt P49736); assay: Induction of ubiquitination of MCM2 in human NCI-H1975 cells incubated for 24 hrs by magnetic beads technique based immunoblot analysis; type: cell-based
[6] = system: NCI-H1975; assay: Cell cycle arrest in human NCI-H1975 cells assessed as replication fork at 140 nM incubated for 48 hrs by DAPI staining based immunofluorescence microscopy (reference value: 176.8 +/- 8.7); type: functional
[7] = system: NCI-H1975; assay: Cell cycle arrest in human NCI-H1975 cells assessed as accumulation in G1/S phase at 140 nM incubated for 48 hrs by DAPI staining based immunofluorescence microscopy; type: functional
[8] = system: NCI-H1975; assay: Cell cycle arrest in human NCI-H1975 cells assessed as BrdU positive cells at 140 nM incubated for 24 hrs by BrdUrd incorporation assay (reference value: 44.5 +/- 2 %); type: functional
[9] = system: NCI-H1975; assay: Antiproliferative activity against human NCI-H1975 cells assessed as reduction in cell viability incubated for 72 hrs by SRB assay; type: functional, cell-based; details: NCI-H1975, 72 h
[10] = target: DNA replication licensing factor MCM2 (Homo sapiens) (UniProt P49736); assay: Induction of ubiquitination of MCM2 in human NCI-H1975 cells incubated for 24 hrs by immunoblot analysis; type: cell-based
[11] = target: DNA replication licensing factor MCM2 (Homo sapiens) (UniProt P49736); assay: Induction of ubiquitination of MCM2 in human NCI-H1975 cells incubated for 72 hrs by immunoblot analysis (reference value: 1); type: cell-based
[12] = target: DNA replication licensing factor MCM7 (Homo sapiens) (UniProt P33993); assay: Induction of ubiquitination of MCM7 in human NCI-H1975 cells at 140 nM in presence of MG132 incubated for 48 hrs followed by MG132 addition and measured after 12 hrs by immunoblot analysis; type: cell-based
[13] = Selectivity index, ratio of IC50 for human bronchial epithelial cells to IC50 for human PC9IR cells; type: toxicity; details: human bronchial epithelial cells versus PC9IR cells, read-out: Ratio IC50
[14] = Toxicity in athymic nude BALB/c mouse xenografted with human NCI-H1975 cells assessed as effect on serum aspartate transaminase at 1 or 4 mg/kg, ip administered for 4 weeks; type: organism-based; details: in vivo, 672 h
[15] = system: NCI-H1975; assay: Induction of apoptosis in human NCI-H1975 cells xenografted in athymic nude BALB/c mouse at 1 or 4 mg/kg, ip administered for 4 weeks by hematoxylin and eosin staining based assay; type: functional, organism-based
[16] = target: DNA replication licensing factor MCM7 (Homo sapiens) (UniProt P33993); assay: Induction of ubiquitination of MCM7 in human PC9 cells incubated for 24 hrs by immunoblot analysis; type: cell-based; details: PC-9
[17] = target: T2, DNA replication licensing factor MCM4 (Homo sapiens) (UniProt P33991); assay: Induction of ubiquitination of MCM4 in human NCI-H1975 cells incubated for 24 hrs by immunoblot analysis (reference value: 1); type: cell-based
T2 sequence (whole entry): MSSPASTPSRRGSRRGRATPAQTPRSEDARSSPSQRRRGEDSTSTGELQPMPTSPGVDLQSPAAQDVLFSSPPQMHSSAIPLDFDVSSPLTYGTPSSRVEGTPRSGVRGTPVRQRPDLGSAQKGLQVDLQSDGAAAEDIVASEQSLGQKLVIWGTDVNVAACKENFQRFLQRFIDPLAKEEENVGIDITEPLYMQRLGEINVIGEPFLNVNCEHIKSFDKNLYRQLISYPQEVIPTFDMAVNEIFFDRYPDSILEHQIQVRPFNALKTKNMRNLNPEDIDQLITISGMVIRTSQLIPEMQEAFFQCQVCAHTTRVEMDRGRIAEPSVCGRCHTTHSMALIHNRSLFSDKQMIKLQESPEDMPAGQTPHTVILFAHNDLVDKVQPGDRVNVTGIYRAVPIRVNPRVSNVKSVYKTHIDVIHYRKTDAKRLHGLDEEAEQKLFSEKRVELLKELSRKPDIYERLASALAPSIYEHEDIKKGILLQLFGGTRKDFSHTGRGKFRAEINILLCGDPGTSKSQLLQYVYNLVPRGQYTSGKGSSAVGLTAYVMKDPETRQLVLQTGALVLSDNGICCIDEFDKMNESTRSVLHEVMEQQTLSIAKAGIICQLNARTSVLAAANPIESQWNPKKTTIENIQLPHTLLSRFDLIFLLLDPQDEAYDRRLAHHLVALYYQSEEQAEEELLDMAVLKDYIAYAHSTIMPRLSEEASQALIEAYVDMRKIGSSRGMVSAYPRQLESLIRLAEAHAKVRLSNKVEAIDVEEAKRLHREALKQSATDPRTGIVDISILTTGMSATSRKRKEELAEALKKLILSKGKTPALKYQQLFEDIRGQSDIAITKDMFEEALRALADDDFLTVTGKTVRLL

[18] = Selectivity index, ratio of IC50 for human bronchial epithelial cells to IC50 for human CL1-5 cells; type: toxicity; details: human bronchial epithelial cells versus CL1-5 cells, read-out: Ratio IC50

Sequence of DNA replication licensing factor MCM7 (Homo sapiens) (P33993 whole entry): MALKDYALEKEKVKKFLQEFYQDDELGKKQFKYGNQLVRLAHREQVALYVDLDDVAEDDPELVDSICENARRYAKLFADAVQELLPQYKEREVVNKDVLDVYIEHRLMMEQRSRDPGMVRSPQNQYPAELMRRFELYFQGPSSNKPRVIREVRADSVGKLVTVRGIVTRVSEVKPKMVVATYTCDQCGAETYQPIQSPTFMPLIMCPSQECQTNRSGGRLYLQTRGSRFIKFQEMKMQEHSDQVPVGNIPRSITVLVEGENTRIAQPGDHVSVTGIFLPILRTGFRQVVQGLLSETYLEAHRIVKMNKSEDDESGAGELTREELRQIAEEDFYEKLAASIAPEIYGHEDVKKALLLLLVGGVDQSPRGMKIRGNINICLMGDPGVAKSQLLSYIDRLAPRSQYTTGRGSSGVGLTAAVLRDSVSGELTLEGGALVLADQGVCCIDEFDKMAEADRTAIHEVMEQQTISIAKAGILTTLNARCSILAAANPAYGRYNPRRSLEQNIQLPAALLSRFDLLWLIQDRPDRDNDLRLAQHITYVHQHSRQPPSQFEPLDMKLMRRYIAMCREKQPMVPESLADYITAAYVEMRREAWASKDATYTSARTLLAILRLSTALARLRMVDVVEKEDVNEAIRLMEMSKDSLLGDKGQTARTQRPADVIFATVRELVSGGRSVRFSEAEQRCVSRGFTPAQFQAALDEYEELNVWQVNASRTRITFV
Sequence of DNA replication licensing factor MCM2 (Homo sapiens) (P49736 whole entry): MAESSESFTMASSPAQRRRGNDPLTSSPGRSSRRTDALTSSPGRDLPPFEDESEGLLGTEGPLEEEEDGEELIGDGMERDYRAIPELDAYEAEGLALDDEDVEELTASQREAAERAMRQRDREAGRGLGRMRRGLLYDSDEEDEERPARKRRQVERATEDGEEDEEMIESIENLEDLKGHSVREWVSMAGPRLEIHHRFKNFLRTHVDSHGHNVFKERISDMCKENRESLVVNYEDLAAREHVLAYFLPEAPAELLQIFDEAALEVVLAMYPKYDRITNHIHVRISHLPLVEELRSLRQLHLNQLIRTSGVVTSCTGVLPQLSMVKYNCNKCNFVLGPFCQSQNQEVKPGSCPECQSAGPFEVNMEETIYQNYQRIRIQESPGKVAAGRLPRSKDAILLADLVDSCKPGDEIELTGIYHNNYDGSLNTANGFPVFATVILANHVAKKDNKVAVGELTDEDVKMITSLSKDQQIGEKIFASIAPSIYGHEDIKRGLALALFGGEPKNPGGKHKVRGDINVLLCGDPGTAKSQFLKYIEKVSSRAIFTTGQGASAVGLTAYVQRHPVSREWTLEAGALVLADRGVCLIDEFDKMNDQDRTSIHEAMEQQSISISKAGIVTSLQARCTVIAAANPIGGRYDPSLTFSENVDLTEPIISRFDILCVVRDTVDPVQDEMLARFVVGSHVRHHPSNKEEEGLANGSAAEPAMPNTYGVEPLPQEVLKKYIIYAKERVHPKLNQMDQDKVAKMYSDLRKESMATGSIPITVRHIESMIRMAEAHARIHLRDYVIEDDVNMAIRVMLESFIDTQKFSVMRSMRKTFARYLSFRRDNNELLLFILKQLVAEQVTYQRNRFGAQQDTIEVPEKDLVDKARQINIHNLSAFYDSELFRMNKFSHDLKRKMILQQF

## Cc1oc2c(c1C(=O)NCCCn1ccnc1)C(=O)c1ccccc1C2=O
[1]
  Activity: 16%
[2]
  Activity: 1.1
[3]
  Activity: 0.4
[4]
  Activity: Active
[5]
  Activity: Active
[6]
  Activity: 48.8
[7]
  Activity: Active
[8]
  Activity: 27.7%
[9]
  IC50: 77 nM
[10]
  Activity: Dose-dependent effect
[11]
  Activity: 0.3
[12]
  Activity: Active
[13]
  selectivity ratio: > 10
[14]
  Activity: Non-Toxic
[15]
  Activity: Active
[16]
  Activity: Active
[17]
  Activity: 0.4
[18]
  selectivity ratio: > 10
